Source: PMC11867108, “Design and application of a fluorescent probe for imaging of endogenous Bruton's tyrosine kinase with preserved enzymatic activity” (RSC Chemical Biology, 2025)

Assays:
[1] = target: T1, Bruton's tyrosine kinase (BTK) (Homo sapiens, UniProt Q06187); assay: in-gel fluorescence under denaturing conditions (covalent labelling); ADP-Glo IC50; type: biochemical
T1 construct: full-length recombinant BTK

[2] = target: T1, Bruton's tyrosine kinase (BTK); assay: LC-MS/MS of tryptic peptide […]-487 and in-gel fluorescence; ADP-Glo IC50; immunoprecipitation from Ramos cells; type: biochemical

T1 sequence (Q06187 2-659): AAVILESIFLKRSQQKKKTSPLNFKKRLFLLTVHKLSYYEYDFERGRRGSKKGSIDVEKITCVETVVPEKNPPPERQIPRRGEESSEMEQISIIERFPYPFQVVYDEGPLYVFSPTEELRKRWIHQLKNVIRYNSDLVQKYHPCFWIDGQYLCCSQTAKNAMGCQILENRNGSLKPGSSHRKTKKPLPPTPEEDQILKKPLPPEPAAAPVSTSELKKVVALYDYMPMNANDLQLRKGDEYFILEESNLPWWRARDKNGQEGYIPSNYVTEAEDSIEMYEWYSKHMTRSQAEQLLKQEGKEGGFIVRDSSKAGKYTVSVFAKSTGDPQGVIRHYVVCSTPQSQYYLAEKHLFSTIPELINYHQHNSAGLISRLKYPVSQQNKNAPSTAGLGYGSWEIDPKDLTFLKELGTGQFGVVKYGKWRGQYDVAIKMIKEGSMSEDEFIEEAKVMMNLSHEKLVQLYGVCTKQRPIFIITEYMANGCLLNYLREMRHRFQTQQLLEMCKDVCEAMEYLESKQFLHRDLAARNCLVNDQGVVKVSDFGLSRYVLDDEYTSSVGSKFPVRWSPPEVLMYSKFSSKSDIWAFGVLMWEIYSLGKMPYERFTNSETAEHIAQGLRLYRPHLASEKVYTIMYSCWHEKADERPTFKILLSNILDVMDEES

SMILES | IC50 [1] [µM] | IC50 [2] [µM]
C=C(CN1CCC(CNc2ncnc(N)c2-c2ccc(Oc3ccccc3)cc2)CC1)C(=O)NCCNC(=O)CCC1=[N+]2C(=Cc3c(C)cc(C)n3[B-]2(F)F)C=C1 [Evo-1] | 7.61 | –
C=C(CN1CCC(CNc2ncnc(N)c2-c2ccc(Oc3ccccc3)cc2)CC1)C(=O)N1CCC(NC(=O)CCC2=[N+]3C(=Cc4c(C)cc(C)n4[B-]3(F)F)C=C2)CC1 [Evo-2] | – | > 10
